Reference: ChEMBL document CHEMBL3991601, “The target landscape of clinical kinase drugs” (Science, 2017)
Active and inactive are the calls of the source. For most assays here, no stated cut-off is given here; in the data, actives have a measured Kd and inactives only a lower limit.

Experiments:
[1] = target: 5'-AMP-activated protein kinase catalytic subunit alpha-1 (Homo sapiens, UniProt Q13131)
[2] = target: T1, Bone morphogenetic protein receptor type-2 (Homo sapiens, UniProt Q13873)
T1 sequence (Q13873 whole entry): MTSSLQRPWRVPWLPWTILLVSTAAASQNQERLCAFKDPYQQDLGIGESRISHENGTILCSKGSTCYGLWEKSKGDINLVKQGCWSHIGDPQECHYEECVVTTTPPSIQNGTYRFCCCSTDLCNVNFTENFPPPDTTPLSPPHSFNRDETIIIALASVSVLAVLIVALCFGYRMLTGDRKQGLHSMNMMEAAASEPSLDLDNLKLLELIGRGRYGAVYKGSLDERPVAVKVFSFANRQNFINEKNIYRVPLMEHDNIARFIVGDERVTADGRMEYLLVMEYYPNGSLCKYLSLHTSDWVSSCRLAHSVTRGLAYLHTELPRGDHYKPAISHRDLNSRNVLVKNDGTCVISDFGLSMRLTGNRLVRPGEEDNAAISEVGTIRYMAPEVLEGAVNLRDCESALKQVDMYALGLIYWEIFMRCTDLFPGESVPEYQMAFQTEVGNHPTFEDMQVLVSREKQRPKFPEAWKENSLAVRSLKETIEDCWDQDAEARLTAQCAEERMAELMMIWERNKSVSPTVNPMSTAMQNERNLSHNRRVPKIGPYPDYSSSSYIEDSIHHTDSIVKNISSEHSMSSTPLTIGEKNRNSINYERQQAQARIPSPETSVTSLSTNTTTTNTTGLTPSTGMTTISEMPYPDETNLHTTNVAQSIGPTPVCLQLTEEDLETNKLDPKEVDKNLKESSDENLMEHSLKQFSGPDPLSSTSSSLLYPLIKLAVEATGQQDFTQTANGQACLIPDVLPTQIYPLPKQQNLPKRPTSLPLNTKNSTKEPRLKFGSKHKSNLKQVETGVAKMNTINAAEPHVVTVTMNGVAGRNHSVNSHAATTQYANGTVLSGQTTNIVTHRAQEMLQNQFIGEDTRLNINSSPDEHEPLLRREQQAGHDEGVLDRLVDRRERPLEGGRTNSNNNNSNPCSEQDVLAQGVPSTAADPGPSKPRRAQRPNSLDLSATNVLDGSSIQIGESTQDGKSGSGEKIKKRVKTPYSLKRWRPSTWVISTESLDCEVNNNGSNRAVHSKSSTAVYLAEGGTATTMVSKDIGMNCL

[3] = target: T2, Ferrochelatase, mitochondrial (Homo sapiens, UniProt P22830)
T2 sequence (P22830 whole entry): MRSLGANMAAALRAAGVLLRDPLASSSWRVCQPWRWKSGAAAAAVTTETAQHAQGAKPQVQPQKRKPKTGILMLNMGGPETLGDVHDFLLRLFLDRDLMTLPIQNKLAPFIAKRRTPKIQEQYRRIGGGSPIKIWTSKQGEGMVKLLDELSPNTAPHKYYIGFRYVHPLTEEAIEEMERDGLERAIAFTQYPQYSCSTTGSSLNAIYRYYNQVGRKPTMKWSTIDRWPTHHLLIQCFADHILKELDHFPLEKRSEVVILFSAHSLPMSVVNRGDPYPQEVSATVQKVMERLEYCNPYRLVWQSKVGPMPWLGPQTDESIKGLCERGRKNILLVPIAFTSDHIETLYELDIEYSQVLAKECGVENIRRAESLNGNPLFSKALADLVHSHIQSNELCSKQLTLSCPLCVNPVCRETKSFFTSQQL

[4] = target: Mitogen-activated protein kinase kinase kinase 1 (Homo sapiens, UniProt Q13233)
Chain of Mitogen-activated protein kinase kinase kinase 1 (Q13233 whole entry): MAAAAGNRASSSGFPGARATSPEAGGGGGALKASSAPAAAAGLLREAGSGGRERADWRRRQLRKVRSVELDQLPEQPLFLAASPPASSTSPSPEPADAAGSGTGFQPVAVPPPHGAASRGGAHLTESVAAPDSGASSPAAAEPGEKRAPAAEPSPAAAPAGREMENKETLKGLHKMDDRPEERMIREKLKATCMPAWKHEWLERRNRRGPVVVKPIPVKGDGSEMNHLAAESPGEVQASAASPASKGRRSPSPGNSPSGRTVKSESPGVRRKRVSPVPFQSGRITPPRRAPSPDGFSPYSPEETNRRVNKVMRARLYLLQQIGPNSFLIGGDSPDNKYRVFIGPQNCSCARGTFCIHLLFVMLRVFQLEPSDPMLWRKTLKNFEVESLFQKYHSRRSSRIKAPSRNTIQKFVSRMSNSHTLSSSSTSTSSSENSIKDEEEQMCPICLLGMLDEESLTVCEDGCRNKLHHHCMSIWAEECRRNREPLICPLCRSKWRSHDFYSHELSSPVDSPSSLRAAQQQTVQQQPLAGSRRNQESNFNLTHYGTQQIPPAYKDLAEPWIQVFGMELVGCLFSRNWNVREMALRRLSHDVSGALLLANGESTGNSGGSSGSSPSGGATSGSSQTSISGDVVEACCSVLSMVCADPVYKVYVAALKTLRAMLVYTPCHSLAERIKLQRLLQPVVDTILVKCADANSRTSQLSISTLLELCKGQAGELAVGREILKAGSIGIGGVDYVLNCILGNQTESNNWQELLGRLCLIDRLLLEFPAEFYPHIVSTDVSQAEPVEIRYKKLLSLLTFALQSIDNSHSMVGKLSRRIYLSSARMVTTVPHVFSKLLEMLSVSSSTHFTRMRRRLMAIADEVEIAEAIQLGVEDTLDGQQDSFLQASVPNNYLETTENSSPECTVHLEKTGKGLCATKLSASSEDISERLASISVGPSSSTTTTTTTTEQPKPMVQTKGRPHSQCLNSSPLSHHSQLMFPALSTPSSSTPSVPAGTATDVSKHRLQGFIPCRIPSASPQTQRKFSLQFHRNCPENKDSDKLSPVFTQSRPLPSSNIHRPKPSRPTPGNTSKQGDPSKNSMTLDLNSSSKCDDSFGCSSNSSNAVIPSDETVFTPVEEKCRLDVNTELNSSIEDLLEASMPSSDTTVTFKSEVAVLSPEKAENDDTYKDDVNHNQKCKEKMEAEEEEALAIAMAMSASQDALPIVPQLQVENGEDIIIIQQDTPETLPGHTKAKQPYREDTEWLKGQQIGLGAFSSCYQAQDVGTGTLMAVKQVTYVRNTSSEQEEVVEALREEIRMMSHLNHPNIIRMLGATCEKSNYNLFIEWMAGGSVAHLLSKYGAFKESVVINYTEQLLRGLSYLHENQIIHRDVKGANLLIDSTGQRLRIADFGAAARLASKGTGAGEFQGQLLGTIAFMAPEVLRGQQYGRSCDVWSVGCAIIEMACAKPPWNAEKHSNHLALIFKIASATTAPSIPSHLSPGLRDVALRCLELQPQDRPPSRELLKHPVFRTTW

[5] = target: Serine/threonine-protein kinase MRCK beta (Homo sapiens, UniProt Q9Y5S2)
[6] = target: T3, Phosphatidylinositol 5-phosphate 4-kinase type-2 gamma (Homo sapiens, UniProt Q8TBX8)
T3 sequence (Q8TBX8 whole entry): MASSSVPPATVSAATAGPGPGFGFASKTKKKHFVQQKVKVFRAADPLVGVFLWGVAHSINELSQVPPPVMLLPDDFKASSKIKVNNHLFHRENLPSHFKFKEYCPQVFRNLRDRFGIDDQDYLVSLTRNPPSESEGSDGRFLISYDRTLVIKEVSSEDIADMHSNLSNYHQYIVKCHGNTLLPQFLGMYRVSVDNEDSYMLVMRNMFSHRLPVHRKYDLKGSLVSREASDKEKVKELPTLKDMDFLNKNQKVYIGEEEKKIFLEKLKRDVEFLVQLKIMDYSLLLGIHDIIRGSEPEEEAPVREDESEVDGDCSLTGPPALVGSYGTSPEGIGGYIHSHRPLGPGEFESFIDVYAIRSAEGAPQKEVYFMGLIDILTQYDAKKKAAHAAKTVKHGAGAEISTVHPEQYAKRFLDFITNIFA

[7] = target: Mitogen-activated protein kinase 3 (Homo sapiens, UniProt P27361)
Chain of Mitogen-activated protein kinase 3 (P27361 whole entry): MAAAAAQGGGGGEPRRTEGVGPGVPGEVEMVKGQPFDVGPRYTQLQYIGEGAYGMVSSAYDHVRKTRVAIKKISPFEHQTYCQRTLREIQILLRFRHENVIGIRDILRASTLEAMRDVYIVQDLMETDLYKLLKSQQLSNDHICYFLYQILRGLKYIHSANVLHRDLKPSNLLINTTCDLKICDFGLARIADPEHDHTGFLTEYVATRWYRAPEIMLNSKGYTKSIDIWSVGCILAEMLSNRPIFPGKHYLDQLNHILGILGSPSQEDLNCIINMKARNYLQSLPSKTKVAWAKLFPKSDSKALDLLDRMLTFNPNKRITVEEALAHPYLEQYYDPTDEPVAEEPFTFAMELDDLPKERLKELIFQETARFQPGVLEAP

[8] = target: Tyrosine-protein kinase BTK (Homo sapiens, UniProt Q06187)
Chain of Tyrosine-protein kinase BTK (Q06187 whole entry): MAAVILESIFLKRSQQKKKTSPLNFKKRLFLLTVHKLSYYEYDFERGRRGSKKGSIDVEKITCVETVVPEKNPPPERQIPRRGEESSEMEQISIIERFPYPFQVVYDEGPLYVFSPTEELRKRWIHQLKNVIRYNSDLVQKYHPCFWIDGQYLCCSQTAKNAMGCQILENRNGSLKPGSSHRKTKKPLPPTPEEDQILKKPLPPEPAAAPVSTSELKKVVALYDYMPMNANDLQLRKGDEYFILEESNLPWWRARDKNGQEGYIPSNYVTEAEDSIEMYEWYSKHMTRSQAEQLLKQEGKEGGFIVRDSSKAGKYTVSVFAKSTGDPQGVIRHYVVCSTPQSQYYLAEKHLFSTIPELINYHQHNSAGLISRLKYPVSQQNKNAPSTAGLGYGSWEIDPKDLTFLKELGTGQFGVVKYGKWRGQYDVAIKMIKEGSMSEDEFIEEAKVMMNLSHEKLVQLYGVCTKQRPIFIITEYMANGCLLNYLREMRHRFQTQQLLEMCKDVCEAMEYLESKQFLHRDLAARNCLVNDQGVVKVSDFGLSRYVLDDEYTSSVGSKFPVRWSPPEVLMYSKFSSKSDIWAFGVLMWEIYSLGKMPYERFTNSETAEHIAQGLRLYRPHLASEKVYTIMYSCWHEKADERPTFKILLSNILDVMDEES

[9] = target: Serine/threonine-protein kinase 10 (Homo sapiens, UniProt O94804)
Chain of Serine/threonine-protein kinase 10 (O94804 whole entry): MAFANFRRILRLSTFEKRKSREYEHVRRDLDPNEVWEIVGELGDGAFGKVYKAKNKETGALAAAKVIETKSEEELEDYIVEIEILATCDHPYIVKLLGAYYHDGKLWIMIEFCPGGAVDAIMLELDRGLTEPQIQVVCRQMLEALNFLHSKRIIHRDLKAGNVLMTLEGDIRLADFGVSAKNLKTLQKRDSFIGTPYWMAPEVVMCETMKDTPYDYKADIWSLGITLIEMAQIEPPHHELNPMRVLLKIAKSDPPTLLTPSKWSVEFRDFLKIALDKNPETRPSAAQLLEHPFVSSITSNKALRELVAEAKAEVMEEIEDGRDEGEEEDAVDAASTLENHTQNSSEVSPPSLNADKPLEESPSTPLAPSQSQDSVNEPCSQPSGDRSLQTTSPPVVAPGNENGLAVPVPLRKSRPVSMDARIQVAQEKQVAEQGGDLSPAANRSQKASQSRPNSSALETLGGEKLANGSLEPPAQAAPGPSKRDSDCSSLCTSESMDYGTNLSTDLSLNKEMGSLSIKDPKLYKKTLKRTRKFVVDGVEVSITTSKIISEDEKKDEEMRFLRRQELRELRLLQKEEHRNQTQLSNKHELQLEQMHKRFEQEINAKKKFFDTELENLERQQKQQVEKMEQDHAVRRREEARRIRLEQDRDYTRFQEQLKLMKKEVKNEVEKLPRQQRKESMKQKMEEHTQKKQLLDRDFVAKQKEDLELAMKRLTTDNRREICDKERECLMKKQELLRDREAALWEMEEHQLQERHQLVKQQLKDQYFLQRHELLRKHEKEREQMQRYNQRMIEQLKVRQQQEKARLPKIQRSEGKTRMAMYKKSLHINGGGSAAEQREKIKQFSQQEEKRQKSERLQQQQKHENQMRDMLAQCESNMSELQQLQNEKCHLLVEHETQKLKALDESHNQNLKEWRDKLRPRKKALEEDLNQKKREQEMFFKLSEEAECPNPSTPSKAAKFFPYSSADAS

[10] = target: T4, Serine/threonine-protein kinase ICK (Homo sapiens, UniProt Q9UPZ9)
T4 sequence (Q9UPZ9 whole entry): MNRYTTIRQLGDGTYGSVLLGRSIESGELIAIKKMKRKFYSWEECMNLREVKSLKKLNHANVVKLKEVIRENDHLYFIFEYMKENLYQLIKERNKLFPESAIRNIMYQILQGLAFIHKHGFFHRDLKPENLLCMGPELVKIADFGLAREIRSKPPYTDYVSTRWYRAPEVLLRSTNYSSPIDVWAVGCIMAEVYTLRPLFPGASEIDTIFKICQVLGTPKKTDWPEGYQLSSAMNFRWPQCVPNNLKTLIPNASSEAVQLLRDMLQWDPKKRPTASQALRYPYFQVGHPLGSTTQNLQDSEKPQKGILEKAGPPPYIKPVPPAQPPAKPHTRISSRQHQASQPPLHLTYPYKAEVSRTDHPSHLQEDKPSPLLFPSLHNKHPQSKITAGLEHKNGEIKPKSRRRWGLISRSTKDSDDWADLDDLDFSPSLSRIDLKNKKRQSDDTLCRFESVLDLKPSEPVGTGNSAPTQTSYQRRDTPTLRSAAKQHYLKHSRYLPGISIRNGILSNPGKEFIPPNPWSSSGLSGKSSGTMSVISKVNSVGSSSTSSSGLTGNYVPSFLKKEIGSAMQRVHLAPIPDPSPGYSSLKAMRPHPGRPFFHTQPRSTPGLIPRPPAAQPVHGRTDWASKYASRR

Chain of 5'-AMP-activated protein kinase catalytic subunit alpha-1 (Q13131 whole entry): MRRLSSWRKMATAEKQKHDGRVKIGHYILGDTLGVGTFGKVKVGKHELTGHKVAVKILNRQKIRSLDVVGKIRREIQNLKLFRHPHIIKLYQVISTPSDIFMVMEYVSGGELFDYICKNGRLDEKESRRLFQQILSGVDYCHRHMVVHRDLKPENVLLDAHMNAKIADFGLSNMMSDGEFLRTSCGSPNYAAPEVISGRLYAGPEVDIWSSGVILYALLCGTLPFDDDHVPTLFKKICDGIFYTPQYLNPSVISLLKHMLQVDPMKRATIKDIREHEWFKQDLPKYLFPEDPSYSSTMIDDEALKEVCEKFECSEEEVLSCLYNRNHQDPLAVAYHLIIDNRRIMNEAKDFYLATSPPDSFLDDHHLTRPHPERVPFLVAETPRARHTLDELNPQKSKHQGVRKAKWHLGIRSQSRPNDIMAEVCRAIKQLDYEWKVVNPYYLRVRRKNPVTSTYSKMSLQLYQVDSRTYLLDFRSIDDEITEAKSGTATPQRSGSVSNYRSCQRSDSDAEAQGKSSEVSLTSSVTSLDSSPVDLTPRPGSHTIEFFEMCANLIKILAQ

Compound | Kd [1] | Kd [2] | Kd [3] | Kd [4] | Kd [5] | Kd [6] | Kd [7] | Kd [8] | Kd [9] | Kd [10]
O=c1[nH]c([C@@H]2CCCN2)nc2c1oc1ccc(Cl)cc12 | > 30 µM (inactive) | > 30 µM (inactive) | > 30 µM (inactive) | > 30 µM (inactive) | > 30 µM (inactive) | > 30 µM (inactive) | > 30 µM (inactive) | > 30 µM (inactive) | > 30 µM (inactive) | –
Cc1c(NC(=O)OC[C@@H]2COCCN2)cn2ncnc(Nc3ccc4c(cnn4Cc4cccc(F)c4)c3)c12 [AC-480] | > 30 µM (inactive) | > 30 µM (inactive) | > 30 µM (inactive) | > 30 µM (inactive) | > 30 µM (inactive) | > 30 µM (inactive) | > 30 µM (inactive) | > 30 µM (inactive) | > 30 µM (inactive) | –
C=CCn1c(=O)c2cnc(Nc3ccc(N4CCN(C)CC4)cc3)nc2n1-c1cccc(C(C)(C)O)n1 [ADAVOSERTIB] | – | > 30 µM (inactive) | > 30 µM (inactive) | > 30 µM (inactive) | > 30 µM (inactive) | > 30 µM (inactive) | > 30 µM (inactive) | – | > 30 µM (inactive) | > 30 µM (inactive)
CN(C)C/C=C/C(=O)Nc1cc2c(Nc3ccc(F)c(Cl)c3)ncnc2cc1O[C@H]1CCOC1 [AFATINIB] | – | – | > 30 µM (inactive) | – | – | – | – | – | – | –
S=C(NCc1ccc2c(c1)OCO2)N1CCN(c2ncnc3c2oc2ccccc23)CC1 [AMUVATINIB] | > 30 µM (inactive) | > 30 µM (inactive) | > 30 µM (inactive) | > 30 µM (inactive) | > 30 µM (inactive) | > 30 µM (inactive) | > 30 µM (inactive) | > 30 µM (inactive) | > 30 µM (inactive) | –
NC[C@@](O)(c1ccc(Cl)cc1)c1ccc(-c2cn[nH]c2)cc1 [AT-13148] | > 30 µM (inactive) | > 30 µM (inactive) | > 30 µM (inactive) | > 30 µM (inactive) | > 30 µM (inactive) | > 30 µM (inactive) | > 30 µM (inactive) | > 30 µM (inactive) | > 30 µM (inactive) | –
CCN(CCCOc1ccc2c(Nc3cc(CC(=O)Nc4cccc(F)c4)n[nH]3)ncnc2c1)CCOP(=O)(O)O [BARASERTIB] | – | > 30 µM (inactive) | > 30 µM (inactive) | > 30 µM (inactive) | > 30 µM (inactive) | > 30 µM (inactive) | > 30 µM (inactive) | – | > 30 µM (inactive) | > 30 µM (inactive)
C[C@@]1(C(=O)Nc2ccc(F)nc2)CCCN1c1nc(Nc2cc(C3CC3)n[nH]2)c2cccn2n1 [BMS-754807] | – | – | > 30 µM (inactive) | – | – | – | – | – | – | –
CCOc1ccn(-c2ccc(F)cc2)c(=O)c1C(=O)Nc1ccc(Oc2ccnc(N)c2Cl)c(F)c1 [BMS-777607] | – | – | > 30 µM (inactive) | > 30 µM (inactive) | > 30 µM (inactive) | > 30 µM (inactive) | > 30 µM (inactive) | – | > 30 µM (inactive) | > 30 µM (inactive)
COc1cc2c(Oc3ccc4[nH]c(C)cc4c3F)ncnc2cc1OCCCN1CCCC1 [CEDIRANIB] | – | – | > 30 µM (inactive) | – | – | – | – | – | – | –
Cn1c(=O)n(-c2ccc(C(C)(C)C#N)cc2)c2c3cc(-c4cnc5ccccc5c4)ccc3ncc21 [DACTOLISIB] | – | > 30 µM (inactive) | > 30 µM (inactive) | > 30 µM (inactive) | > 30 µM (inactive) | > 30 µM (inactive) | > 30 µM (inactive) | – | > 30 µM (inactive) | > 30 µM (inactive)
O=S(=O)(c1cccc2cnccc12)N1CCCNCC1 [FASUDIL] | – | > 30 µM (inactive) | > 30 µM (inactive) | > 30 µM (inactive) | > 30 µM (inactive) | > 30 µM (inactive) | > 30 µM (inactive) | – | > 30 µM (inactive) | –
C[C@]1(O)C[C@@H](c2nc(-c3ccc4ccc(-c5ccccc5)nc4c3)c3c(N)nccn32)C1 [LINSITINIB] | – | > 30 µM (inactive) | 4.21 µM (active) | > 30 µM (inactive) | > 30 µM (inactive) | 5.57 µM (active) | – | – | > 30 µM (inactive) | > 30 µM (inactive)
N#CCNC(=O)c1ccc(-c2ccnc(Nc3ccc(N4CCOCC4)cc3)n2)cc1 [MOMELOTINIB] | > 30 µM (inactive) | > 30 µM (inactive) | > 30 µM (inactive) | > 30 µM (inactive) | – | > 30 µM (inactive) | > 30 µM (inactive) | > 30 µM (inactive) | – | –
CC1(C)CNc2cc(NC(=O)c3cccnc3NCc3ccncc3)ccc21 [MOTESANIB] | – | – | > 30 µM (inactive) | – | – | – | – | – | – | –
CN(c1ncccc1CNc1nc(Nc2ccc3c(c2)CC(=O)N3)ncc1C(F)(F)F)S(C)(=O)=O [PF-00562271] | – | > 30 µM (inactive) | > 30 µM (inactive) | > 30 µM (inactive) | > 30 µM (inactive) | > 30 µM (inactive) | > 30 µM (inactive) | – | > 30 µM (inactive) | > 30 µM (inactive)
CC(C)CC(=O)Nc1[nH]nc2c1CN(C(=O)C1CCN(C)CC1)C2(C)C [PHA-793887] | > 30 µM (inactive) | > 30 µM (inactive) | > 30 µM (inactive) | > 30 µM (inactive) | > 30 µM (inactive) | > 30 µM (inactive) | – | > 30 µM (inactive) | > 30 µM (inactive) | > 30 µM (inactive)
O=C(NC[C@H](O)CO)c1ccncc1Nc1ccc(I)cc1F [PIMASERTIB] | > 30 µM (inactive) | > 30 µM (inactive) | > 30 µM (inactive) | > 30 µM (inactive) | > 30 µM (inactive) | > 30 µM (inactive) | > 30 µM (inactive) | > 30 µM (inactive) | > 30 µM (inactive) | –
Cn1cnc2c(F)c(Nc3ccc(Br)cc3Cl)c(C(=O)NOCCO)cc21 [SELUMETINIB] | – | – | > 30 µM (inactive) | – | – | – | – | – | – | –
COc1cc2c(N3CCN(C(=O)Nc4ccc(OC(C)C)cc4)CC3)ncnc2cc1OCCCN1CCCCC1 [TANDUTINIB] | – | – | > 30 µM (inactive) | – | – | – | – | – | – | –
